Test results reported in patent US20260193647A1, “MIRNA-BASED CANCER THERAPY WITH A TUMOR-NAVIGATING PEPTIDE” (The Board of Trustees of the Universities of Illinois, priority 2022, published 2026).

Experiments:
[1] = test system: miR-20a; test: miR-20a levels in resected tumor tissues of treated mice; type: in vivo; details: 1 mg/kg 3 times a week for one week; vs PBS-treated mice
Source text: Micro RNA enriched fraction was extracted using the miRNeasy Mini Kit (Qiagen, Catalog #217004) following the manufacturer's instructions. Stem loop real-time qPCR was used to analyze miRNA expression. We designed miR-20a stem loop RT primers and amplification primers according to a previously described method 79. cDNA was synthesized from extracted RNA using unique stem loop RT primers. The sequence of the stem loop primer for miR-20a was 5′-[…]-3′ (SEQ ID NO:7). Reverse transcriptase reactions contained the following reagents: 10 ng of RNA sample, 60 nM stem-loop RT primer, 1×RT buffer, 0.25 mM dNTP, and 4 U/μl reverse transcriptase. Reactions were performed by incubation at 16° C. for 30 min, 42° C. for 30 min and 85° C. for 5 min. Real-time PCR (7300 Real time PCR Systems, Applied Biosystems, CA) was performed using the specific forward primer for miR-20a (5′-[…]-3′ (SEQ ID NO:8)) and a universal reverse primer (5′-GTGCA GGGTC CGAGGT-3′ (SEQ ID NO:9)). […]
A quantitative analysis using human-specific Alu sequence (hAlu) was performed on samples collected from the isolated brain tissues. […] The amount of hAlu and mGAPDH DNA in the tissue was calculated by comparison with a standard curve, and the calculated amount of hAlu DNA was normalized against the relative quantity of mGAPDH. […]

[2] = test system: SJ-GBM2-luc tumors; test: Intracranial orthotopic SJ-GBM2-luc xenograft: bioluminescence and survival; type: in vivo, mice
Protocol: All animal experiments were performed in accordance with the use of animals in research and approved by IACUC. SJ-GBM2 cells stably expressing luciferase gene (pGL4.51 [luc2/CMV/Neo], Promega) were generated by a chemical transfection method (FuGENE HD, Promega) in the presence of G418 antibiotics (GoldBio). 4-5 weeks athymic mice were purchased from The Jackson Laboratory. SJ-GBM2-luc cell lines was maintained to 70% confluency and checked for their luminescence activity. Similar to the implantation method described previously, cells were resuspended in PBS at a final concentration of 10^6 cells/3 μl. Following anesthesia, a midline incision was made on the calvarium, extending from bregma to lambda sutures. At a position 2 mm posterior to bregma and 2 mm lateral to the […], a 3-mm hole was made in the skull. A 26-gauge Hamilton syringe was inserted into the hole, and 3 μl of 10^6 cells was injected slowly. The injection site was covered with sterile bone wax and sutured. As the first set of experiment, mice were randomly divided into the experimental groups and the dose finding studies were conducted with AmiR20-p28 at 0.1, and 1 mg/kg. AmiR20-p28 was administered every other day three times a week i.v. via the tail vein (200 μl/injection). As the second set of experiment, mice were randomly divided into the groups of PBS or AmiR20-p28 at 1 and 5 mg/kg (N=5). […] Mice were sacrificed based on the following humane endpoints such as >20% weight loss, the presence of labored respiration, abnormal behavior (e.g., paralysis), and loss of the ability to ambulate.
D-Luciferin potassium salt (GoldBio, #LUCK-100) at 150 mg/kg was injected intraperitoneally into the mice. Mice were anesthetized in a chamber with isoflurane/oxygen and positioned for bioluminescent imaging using a Spectral Lago X imaging system (Accela, Czech Republic). A series of images was acquired over a duration up to 30 min after the time of D-luciferin injection. Aura software (version 3.2) was used to compute regions of interest (ROIs) and integrate the total bioluminescence signal in each ROI. Data were analyzed based on radiance (photons/second/cm^2/steradian) in the ROIs. The radiance values were plotted for each animal in the experimental group to form the tumor growth curve. Overall survival was also evaluated based on their survival period (mice died due to disease or were sacrificed based on the humane endpoints criteria). For X-ray imaging, the anesthetized mice were positioned, and a Spectral Lago X imaging system was used to take images. Aura software was used to merge the images taken with X-ray and bioluminescent systems.

[3] = design: species or system mice; details: mouse, in vivo
Protocol: Collected samples were fixed with buffered 3.7% formalin (Anatech) for 24 hr. Formalin was replaced with 70% ethanol following fixation. Samples were paraffin-embedded, and blocks were cut into 4 μm-thick sections and mounted onto slides which were processed for H&E staining. H&E-stained slides were analyzed by a pathologist blinded to the experimental groups.
Alanine transaminase (ALT) activity was measured using ALT assay kits (Sigma, #MAK052) and serum aspartate transaminase (AST) activities was measured using AST assay kits (Sigma, #MAK055) following the manufacturer's instructions. Briefly, serum samples at different dilutions, were reacted with ALT or AST reaction mixture and plated on 96-well plate, followed by reading at A450. The final calculations were done by comparing the sample readings with that of standard curve (pyruvate standards for ALT and glutamate standards for AST).

[4] = Example 6, 1 mg/kg i.v., late phase

AmiR20-p28: BBB-permeable tumor-navigating CPP p28 (Cys-p28) covalently linked to 2′ O-methyl antisense miR-20a (5′-maleimide)
miR-20a levels in tumor tissues [1]: significant decrease in miR-20a levels
tumor recurrence ([2]; 1 and 5 mg/kg, continued or stopped treatment after four weeks, additional ~two months): neither the 1 mg/kg nor the 5 mg/kg dose groups exhibited any signs of tumor recurrence
tumor growth (bioluminescence) ([2]; 1 or 5 mg/kg i.v. 3× weekly, vs PBS or 0.1 mg/kg): significant inhibition of tumor growth
overall survival rate ([2]; Example 6, 1 mg/kg i.v., early phase): 100%
tumor growth (bioluminescence) ([2]; Example 6, 1 mg/kg i.v., early phase, start 10 days after cell injection): complete repression of tumor
mice survived at day 49 [2, 4]: 80%
overall survival rate [2, 4]: 40%
tumor growth (bioluminescence) ([2]; Example 6, 1 mg/kg i.v., late phase, start 40 days after cell injection): tumor progression was observed
overall survival rate ([2]; Example 6, 1 mg/kg i.v., middle phase): 80%
tumor growth (bioluminescence) ([2]; Example 6, 1 mg/kg i.v., middle phase, start 20 days after cell injection): sustained suppression of the tumor burden
tumor growth (bioluminescence) ([2]; Example 7, 1 mg/kg i.v., early phase, 10 days after cell injection): complete repression of tumor
tumor growth (bioluminescence) ([2]; Example 7, 1 mg/kg i.v., late phase, 42 days after cell injection): tumor progression
tumor growth (bioluminescence) ([2]; Example 7, 1 mg/kg i.v., middle phase, 21 days after cell injection): sustained suppression of tumor growth
overall survival probability ([2]; Example 7, 1 mg/kg, late phase): 60%
tumor growth (bioluminescence) ([2]; Example 7, 1 mg/kg, vs PBS and 0.1 mg/kg): significant repression in tumor growth
histology of heart, lung, liver, spleen, and kidney [3]: no AmiR20-p28-related differences in histology
adverse effects (hepatotoxicity assay, hemolysis assay, histological examination) ([3]; iv, 1 mg/kg): without apparent adverse effects
